Measurements from patent US20230077723A1, “N-SUBSTITUTED-3,4-(FUSED 5-RING)-5-PHENYL-PYRROLIDINE-2-ONE COMPOUNDS AS INHIBITORS OF ISOQC AND/OR QC ENZYME” (Scenic Immunology B.V., priority 2019, published 2023).

What was measured:
[1] = tested on: pyroglutamylated CD47 (pE-CD47) in KBM7 cells; assay: Assay 6 - cell-based potency assay (pE-CD47 CC2C6 staining vs total CD47); parameters: species or system human; conditions: Homo sapiens, KBM-7, 72 h, CC2C6 signal, read-out: Cell Pot. Assay No. 6
Description: Cells were spun for 4 minutes at 1500 rpm and washed once with PBS/0.5% BSA. Cells were spun down again and the supernatant was removed and incubated in 100 uL antibody staining solution (PBS/0.5% BSA/0.1 μg/mL DAPI (4′,6-diamidino-2-phenylindole, ThermoFisher Scientific) and a mixture of 1:500 FITC-conjugated anti-human CD47 clone 2D3, which recognizes total CD47 irrespective of its pyroglutamylation state, and 1:500 Alexa647-conjugated anti-human CD47 clone CC2C6, which specifically detects pyroglutamylated CD47) for 2 hours at 4° C. Next, the cells were spun down and washed twice with 2×150 μL PBS/0.5% BSA to remove unbound antibody. Cells were again spun down and taken up in 300 μL FACS buffer before analysis on a Celesta FACS machine (BD Biosciences).
KBM7 cells (Kotecki et al., 1999) were infected with lentivirus produced by transfecting pSCNC-LentiCRISPR-QPCTL or pSCNC-LentiCRISPR-CD47 into HEK-293T cells according to standard protocols. After 24 hours incubation, cells were selected with puromycin (Invivogen, 1 μg/mL) for 48 hours. Cells were stained for total CD47 and pE-CD47 and QPCTL k.o. cells were sorted out as negative for pE-CD47, and CD47 k.o. cells as negative for total CD47, using a FACSAria III and FACS Diva software (BD Biosciences).
In order to test compounds for their effect on pyroglutamylation in live cells, 25000 KBM7 cells per well were seeded in a 96-well U-bottom plate in 150 μl IMDM/10% FCS/1% Pen/Strep medium and a 10-point 2-fold dilution range of test compounds. After 72 hours incubation at 37° C., 5% CO2, cells were stained for total CD47 and pE-CD47 and analyzed on a BD Celesta using FACS Diva software (BD Biosciences). Cells gated for DAPI negativity were recorded and the median fluorescence intensity (MFI) of each sample was transformed to linearly scale between the MFI's of wildtype and CD47 knockout cells (in case of the 2D3 antibody) and the wildtype and QPCTL knockout cells (in case of the CC2C6 antibody). IC50's were calculated by 3 parameter logistic regression of the CC2C6 signal vs. compound concentration, where the top of the sigmoidal curve was fixed at 1, using R and the drc package (http://www.r-project.org, https://cran.r-project.org/web/packages/drc/index.html).

recombinant human QC = molecular target: T1, recombinant human QC (Homo sapiens, UniProt Q16769); assay: Assay 4 - QC potency, mass spectrometry-based enzymatic potency assay; format: biochemical; conditions: mass spectrometry read-out; read-out: QC Pot. Assay No. 4
T1 construct: His6 (N); purchased R&D Systems
Description: (§1) EC50's of test compounds were determined by incubating 11-point two-fold dilutions of test compound in 20 μL volumes in the presence of 7.5 nM isoQC and 10 μM H-Gln-AMC using 50 mM Tris-HCl pH 8.0 as assay buffer for 2 hours at room temperature before stopping the reaction by the addition of 2 volumes of methanol. Both the substrate and the product of this reaction were read out using an Agilent RapidFire microfluidic solid phase sample extraction system coupled to an AB Sciex API 4000 triple quadrupole mass spectrometer, in negative ion mode, at m/z of 301.9 and 284.9 respectively. The actual readout was defined as P/(S+P), where P is the product signal area and S the substrate signal area. EC50's were calculated by four parameter sigmoidal model fitting.
EC50's of test compounds were determined in the same way as described in Assay 2 above, except that N-terminally His6-tagged recombinant human QC (R&D Systems) was used instead of isoQC.

human isoQC (S53-L382) [2] = molecular target: T2, human isoQC (S53-L382) (Homo sapiens, UniProt Q9NXS2); assay: Assay 1 - isoQC inhibition, fluorescent enzymatic assay (single concentration); format: biochemical; conditions: isoQC inhibition at 250 nM test compound; read-out: isoQc Inh. Assay No. 1
T2 construct: enzymatically active region of human isoQC (S53-L382; see, e.g., Huang et al., 2011); GST-Enterokinase site (N, cleaved yes); made in house; host or cells: E. coli
Description: Initially, isoQC inhibitory activity was measured at a single concentration in a fluorescent-based assay (Assay 1 below). In order to establish the inhibitory activity more quantitatively, IC50 values were obtained using a mass spectrometry-based assay where pyroglutamylation by either isoQC or QC was measured (Assays 2 and 4, respectively, below). Alternatively, IC50 values for isoQC or QC were obtained using a fluorescence-based assay (Assays 3 and 5 respectively, below).
(§2) The Golgi luminal, enzymatically active region of human isoQC (S53-L382; see, e.g., Huang et al., 2011) was obtained by expression in E. coli of an N-terminally GST-Enterokinase and C-terminally 6×His tagged construct in the pET41(+) vector and subsequent purification using talon beads and GST beads, enterokinase digestion and further purification with a final formulation in 25 mM Tris pH 8.0/150 mM NaCl/1 mM TCEP. Absence of pyroglutamylating activity in an enzymatic dead variant that was cloned, expressed, and purified in parallel ruled out that the purification strategy isolates any endogenously present pyroglutamylating activity.
Pyroglutamylation was measured by conversion of glutamine-4-amino-7-methylcoumarine (H-Gln-AMC, Bachem) to pyroglutamyl-AMC, which is subsequently a specific substrate for pyroglutamylaminopeptidase (pGAPase, Qiagen), releasing free AMC which can be fluorescently detected. For a typical inhibition assay, 15 μL 20 μM h-Gln-AMC (diluted from a 40 mM stock dissolved in 25 mM HEPES using 50 mM Tris-HCl pH 8.0) was pipetted into a 96-well plate on ice. Next, 7.5 μL 1 μM test compound (diluted from a 10 mM stock dissolved in DMSO using 50 mM Tris-HCl) was added. Finally, 7.5 μL, 3 ng/μL recombinant isoQC enzyme was added and the reaction mixture was incubated for 1 hour at 37° C. A 5 minute incubation at 98° C. was then performed to denature the isoQC enzyme and stop the reaction.
To detect the amount of pyroglutamyl-AMC formed, a 96-well plate was prepared with 25 μL 0.125 U/mL pGAPase enzyme diluted in 50 mM Tris-HCl pH 8.0 containing 10 mM dithiothreitol (DTT). 25 μL of the pyroglutamylation reaction mixture was transferred into the plate containing the pGAPase solutions while on ice. Once done, the plate was moved over to a Spectramax ID3 fluorescent plate-reader to monitor and record the maximum fluorescence at 380 nm excitation/450 nm emission over a period of 20 minutes while keeping the temperature at 37° C.
DMSO concentrations during the assay never exceeded 1% and activities were compared to controls containing only the same amount of DMSO and no test compound. […] Test compounds were reported as active when <40% of background corrected signal was measured as compared to DMSO controls.

human isoQC (S53-L382) [3] = molecular target: T2, human isoQC (S53-L382); assay: Assay 2 - isoQC potency, mass spectrometry-based enzymatic potency assay; format: biochemical; conditions: mass spectrometry read-out, 7.5 nM isoQC, 10 μM H-Gln-AMC; read-out: isoQc Pot. Assay No. 2
Description: as §2, §1

T2 sequence (Q9NXS2 53-382): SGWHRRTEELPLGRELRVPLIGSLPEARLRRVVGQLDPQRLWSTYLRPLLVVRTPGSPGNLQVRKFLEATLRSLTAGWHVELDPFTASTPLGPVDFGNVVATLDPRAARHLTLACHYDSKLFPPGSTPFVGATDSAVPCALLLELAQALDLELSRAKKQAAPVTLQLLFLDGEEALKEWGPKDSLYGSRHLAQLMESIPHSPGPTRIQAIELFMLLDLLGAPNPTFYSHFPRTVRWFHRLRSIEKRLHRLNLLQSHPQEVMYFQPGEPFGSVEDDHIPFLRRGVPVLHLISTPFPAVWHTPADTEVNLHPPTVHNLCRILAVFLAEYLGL
T1 sequence (Q16769 29-361): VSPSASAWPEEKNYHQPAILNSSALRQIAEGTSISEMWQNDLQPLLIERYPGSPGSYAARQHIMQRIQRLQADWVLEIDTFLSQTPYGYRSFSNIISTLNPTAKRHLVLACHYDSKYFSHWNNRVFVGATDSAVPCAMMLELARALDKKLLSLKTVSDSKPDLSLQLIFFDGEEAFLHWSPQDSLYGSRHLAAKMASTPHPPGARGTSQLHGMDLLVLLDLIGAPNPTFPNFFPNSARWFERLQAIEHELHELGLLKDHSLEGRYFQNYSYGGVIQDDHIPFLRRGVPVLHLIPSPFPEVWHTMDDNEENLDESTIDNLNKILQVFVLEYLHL

Structure (SMILES) | IC50 [1] | IC50 (recombinant human QC) | inhibition at 0.25 µM (human isoQC (S53-L382) [2]) | IC50 (human isoQC (S53-L382) [3])
Cc1c2c(nn1C)C(=O)N(c1ccc3[nH]cnc3c1)C2c1cccc(F)c1F (stereo not shown) [FRPPO-012] | < 1000 nM | 25 to 100 nM | > 40% | < 25 nM
Cc1c2c(nn1C)C(=O)N(c1ccc3[nH]cnc3c1)C2c1ccc(N2CCCCCC2=O)cc1 (stereo not shown) [FRPPO-011] | ≥ 50000 nM | 100 to 5000 nM | > 40% | 25 to 100 nM
CCCOc1ccc(C2c3c(nn(C)c3C)C(=O)N2c2ccc3[nH]cnc3c2)c(C)c1 (stereo not shown) [FRPPO-003] | < 1000 nM | 100 to 5000 nM | > 40% | 25 to 100 nM
CCCOc1ccc(C2c3c(nn(C)c3C)C(=O)N2c2ccc3[nH]cnc3c2)c(Cl)c1 (stereo not shown) [FRPPO-004] | < 1000 nM | 25 to 100 nM | > 40% | < 25 nM
COc1ccc(C2c3c(nn(C)c3C)C(=O)N2c2ccc3[nH]cnc3c2)cc1O (stereo not shown) [FRPPO-018] | 5000 to 50000 nM | < 25 nM | > 40% | < 25 nM
Cc1c2c(nn1C)C(=O)N(c1ccc3[nH]cnc3c1)C2c1ccc(N2CCC(C)(C)C2=O)cc1 (stereo not shown) [FRPPO-010] | 1000 to 5000 nM | 25 to 100 nM | > 40% | 25 to 100 nM
Cc1c2c(nn1C)C(=O)N(c1ccc3[nH]cnc3c1)C2c1ccc(OCC(C)(F)F)c(F)c1F (stereo not shown) [FRPPO-019] | < 1000 nM | < 25 nM | > 40% | 25 to 100 nM
Cc1c2c(nn1C)C(=O)N(c1ccc3[nH]cnc3c1)C2c1ccc(N2CCC(F)(F)C2)cc1F (stereo not shown) [FRPPO-028A] | < 1000 nM | 25 to 100 nM | > 40% | < 25 nM
CCCOc1ccc(C2c3c(nn(C)c3C)C(=O)N2c2ccn3ccnc3c2)cc1 (stereo not shown) [FRPPO-009] | 1000 to 5000 nM | 100 to 5000 nM | > 40% | 25 to 100 nM
CCCOc1ccc(C2c3c(C)nn(CC(F)(F)F)c3C(=O)N2c2ccc3[nH]cnc3c2)cc1 (stereo not shown) [FRPPO-023] | 5000 to 50000 nM | – | ≤ 40% | –

Continued, values first:

IC50 [1] | IC50 (recombinant human QC) | inhibition at 0.25 µM (human isoQC (S53-L382) [2]) | IC50 (human isoQC (S53-L382) [3]) | Structure (SMILES)
5000 to 50000 nM | – | ≤ 40% | – | CCCOc1ccc(C2c3c(C)nn(C(C)C)c3C(=O)N2c2ccc3[nH]cnc3c2)cc1 (stereo not shown) [FRPPO-021]
< 1000 nM | 100 to 5000 nM | > 40% | 25 to 100 nM | CCCOc1ccc(C2c3c(nn(C)c3C3CC3)C(=O)N2c2ccc3[nH]cnc3c2)cc1 (stereo not shown) [FRPPO-006]
1000 to 5000 nM | – | > 40% | – | CCCOc1ccc(C2c3c(nn(CC(C)(C)F)c3C)C(=O)N2c2ccc3[nH]cnc3c2)cc1 (stereo not shown) [FRPPO-038]
1000 to 5000 nM | – | ≤ 40% | – | CCCOc1ccc(C2c3c(C)nn(C4CCC4)c3C(=O)N2c2ccc3[nH]cnc3c2)cc1 (stereo not shown) [FRPPO-022]
1000 to 5000 nM | – | > 40% | – | CCCOc1ccc(C2c3c(nn(CC(F)(F)F)c3C)C(=O)N2c2ccc3[nH]cnc3c2)cc1 (stereo not shown) [FRPPO-037]
< 1000 nM | – | > 40% | – | CCCOc1ccc(C2c3c(nn(C4CC4)c3C)C(=O)N2c2ccc3[nH]cnc3c2)cc1 (stereo not shown) [FRPPO-036]
